Data taken from patent publication US20260272865A1, “HYDROXYPHENYL PROPANOATE COMPOUNDS FOR TUMOUR IMMUNOTHERAPY, COMPOSITIONS AND USES THEREOF” (UTI LIMITED PARTNERSHIP, priority 2023, published 2026).

Legend:
[1] = Maximum tolerable dose and body weight of mice given metabolite intraperitoneally; type: in vivo; conditions: 83 mg/kg body weight, given every 48 hours, intraperitoneal
IRF pathway = type: cell-based, human
GSDMD = target: T1, GSDMD (Homo sapiens, UniProt P57764); test: Thermal proteomic profiling (TPP) in intact THP1-Dual cells; type: binding
T1 construct: host or cells: THP1-Dual cells (human monocytic reporter line)
T1 sequence (P57764 1-484): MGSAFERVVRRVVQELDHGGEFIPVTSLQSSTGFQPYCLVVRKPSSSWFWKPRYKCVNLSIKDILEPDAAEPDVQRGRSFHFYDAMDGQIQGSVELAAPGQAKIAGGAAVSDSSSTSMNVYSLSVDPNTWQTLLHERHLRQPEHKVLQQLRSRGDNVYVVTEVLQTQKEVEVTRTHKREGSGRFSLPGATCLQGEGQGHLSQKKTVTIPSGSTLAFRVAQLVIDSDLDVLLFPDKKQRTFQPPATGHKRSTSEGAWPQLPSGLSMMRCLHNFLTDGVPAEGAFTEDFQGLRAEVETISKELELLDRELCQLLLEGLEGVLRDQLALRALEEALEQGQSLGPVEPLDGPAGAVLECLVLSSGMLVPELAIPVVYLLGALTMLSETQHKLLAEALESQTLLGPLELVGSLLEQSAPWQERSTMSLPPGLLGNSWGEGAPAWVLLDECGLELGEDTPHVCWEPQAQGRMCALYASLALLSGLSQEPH
Description: 24 mL of THP1-Dual™ cells (at a density of 1.5×10^6 cells/mL) were treated with 2 mM metabolite or vehicle control for 16 hours. The cells were then centrifuged at 340×g for 5 minutes at 4° C., resuspended in 20 mL of ice-cold PBS, and centrifuged again. The cells were resuspended in 1200 μL of PBS, divided into 10 aliquots of 100 μL in 0.2 mL PCR tubes and centrifuged at 325×g for 2 minutes at 4° C. 80 μL of the PBS supernatant was removed using a pipette and the tubes were gently tapped to resuspend the cells. Each of the metabolite and vehicle-treated cell tubes were then heated in parallel in a PCR machine for 3 minutes at temperatures ranging from 37° C. to 67° C. […] The entire content was centrifuged at 100,000×g for 20 minutes at 4° C., the supernatant was removed into a fresh tube, and the protein concentration of the 37° C. sample was measured. […] The volume of lysate that gave 200 μg of protein at the 37° C. temperature point was determined and removed into a fresh tube for all other temperature points.
The proteins were cleaned up and the peptides digested following previously described methods (Science 346, (2014); Nat. Protoc. 10, 1567-1593 (2015)). […] The next day, the digested peptides were transferred to a fresh Eppendorf™ tube and the concentration of peptides measured in the 37° C. temperature point. […]

M3-9-M tumours = test: Orthotopic M3-9-M rhabdomyosarcoma: tumour immune surveillance, growth, overall survival
Description: Tumour cells were orthotopically implanted into 6-8 week old mice. […] For experiments with rhabdomyosarcoma models, mice were orthotopically implanted with 1.5×10^5 M3-9-M or M3-9-M^OVA cells in 50 μL of PBS into the right-behind leg gastrocnemius muscle using an insulin syringe. RMS tumour volume was calculated by subtracting the volume of the gastrocnemius muscle before tumour implantation from the volume after tumour implantation (length×width×height). […] Tumour measurements were taken twice weekly using skin calipers, from implantation day to either experimental or humane endpoints.
Metabolite compounds were obtained from Sigma-Aldrich and prepared into metabolite stock solutions by dissolving them into UltraPure™ DNase/RNase-Free Distilled Water (Invitrogen™) with 1.0N NaOH (Sigma). The pH of the stock solutions was adjusted to 7.4-7.6 and determination of the endotoxin level of the solutions was completed through a limulus amebocyte lysate (LAL) test. […] To test the metabolite effects on anti-tumour immunity, 100 μL of the metabolite at 83 mg/kg bodyweight per mouse was administered intraperitoneally every 48 hours for seven doses. […] Three doses of 250 μg of either anti-PD-1 or anti-PD-L1 were administered intraperitoneally post tumour implantation on day 10, 13 and 16. To neutralize CD8 T cell in mice, anti-CD8 (clone 2.43; BioXcell) monoclonal antibody was used. 250 μg of anti-CD8 antibody in PBS per mouse was injected intraperitoneally 7 and 1 day before tumour implantation, followed by administering 100 μg of anti-CD8 in PBS into the mice on day 3, 7, and 10.

In the case of `O=C(O)CCc1ccccc1O` [Compound I-1, 3-(2-hydroxyphenyl)propanoic acid], the “toxicity or weight loss” value [1] was “without toxicity or weight loss”, the “IRF pathway activation combined with PRR agonists” value (IRF pathway) was “potentiate” and the “GSDMD protein denaturation curve” value (GSDMD; NPARC test) was “impacted”. The “number of potential protein targets identified (NPARC)” value (GSDMD; proteome-wide, 2 mM metabolite, 16 hours) was 647, the “overall survival, combination with ABX vs either treatment alone” value (M3-9-M tumours; female IMDM-CR mice, M3-9-M tumours, ABX plus 3,2-HPP) was “even higher overall survival” and the “overall survival, combination with anti-PD-1 vs anti-PD-1 alone” value (M3-9-M tumours; female IMDM-CR mice, M3-9-M tumours, 3,2-HPP i.p. plus anti-PD-1) was “further improvement”. The “efficacy of treatment after depletion of CD8 T cells” value (M3-9-M tumours; female IMDM-CR mice, M3-9-M, anti-CD8 neutralizing antibody (clone 2.43)) was “abrogated the efficacy”, the “immune surveillance of M3-9-M tumours (overall survival)” value (M3-9-M tumours; female IMDM-CR mice, i.p. treatment from day 1 post-implantation vs vehicle) was “enhance the immune surveillance” and the “effect on ABX-reduced immune surveillance” value (M3-9-M tumours; female IMDM-JAX mice on ABX-supplemented drinking water, M3-9-M tumours) was “counteracted the negative effect of ABX”. For the same molecule, the overall survival (M3-9-M tumours; female IMDM-JAX mice, M3-9-M tumours, i.p. 3,2-HPP) was “increased the overall survival” and the “response of non-immunogenic M3-9-M tumours to treatment” value (M3-9-M tumours; male IMDM-CR mice, i.p. treatment from day 1) was “did not respond”.
